Tests used:
[1] = tested on: Wound Induced Hair Neogenesis (WIHN); assay: Wound Induced Hair Neogenesis (WIHN), regenerated hair follicles counted by CSLM; type: in vivo, mouse
Procedure: (§1) Wound Induced Hair Neogenesis (WIHN). All experiments were followed with the present inventors' WIHN protocol^1,9. Briefly, hair was shaved and a 1.2 cm^2 full-thickness skin on the backs of 21-day old (telogen) male and female mice was removed by sterile scissors. A single treatment of RA (30 μl) (0.1 μg per mouse) (Millipore Sigma, R2625) and BMS493 (30 μl) (0.1 μg per mouse) (Cayman Chemical, #17418) was applied topically onto open wound on WD1 of Tlr3^−/− and WT mice, respectively. Poly (I:C) (50 μl) (5 μg per mouse) (Invivogen, tlrl-pic) was injected under the healed scab on WD3 of WT mice as described before^9,34. On WD20-24, numbers of regenerated hair follicles were visualized and quantified in the re-epithelialized skin by non-invasive confocal scanning laser microscopy (CSLM) (Caliber I.D., VIVASCOPE 1500) as published^1,9. As a vehicle (Control), ethanol (EtOH), dimethylsulfoxide (DMSO), or PBS was treated for RA, BMS493, and Poly (I:C), respectively.

[2] = tested on: human scalp keratinocytes; assay: Western blot / immunostaining of ALDH1A3, KRT15, KRT19 in human keratinocytes; type: cell-based; details: for ALDH1A3 protein: human keratinocytes, western blot
Procedure: BMS493 treatment. BMS493 pan-RARs antagonist (1 μM) was pre-treated into keratinocytes for an hour and cells were incubated with RA (0.1 μM and 0.5 μM for human and mouse keratinocytes, respectively) or Poly (I:C) (0.1 μg per ml for both human and mouse keratinocytes) for 48 hrs. At the end of the experiment, cells were harvested for RNA and protein extraction to do further analysis including qRT-PCR and western blot.
Western blot analysis. Human and mouse keratinocytes were disrupted in M-PER lysis buffer (Thermo Fisher Scientific, #78501) containing protease inhibitors (Thermo Fisher Scientific, #87786) using ultrasonic homogenizer (20% power with 5 times every 2 seconds) to extract proteins. Then, protein concentrations were determined by BCA method (Thermo Fisher Scientific, #23225). Western blot procedures were followed by the protocol of NuPAGE system (Thermo Fisher Scientific). Briefly, 20 μg of protein samples were loaded for electrophoresis and transferred to polyvinylidene di-fluoride (PVDF) membrane (Bio-Rad, Hercules, CA). After blocking for at least an hour in 5% non-fat dry milk, the membrane was incubated with primary antibodies with appropriate dilutions (Table 2) at 4° C. overnight and followed by incubation with secondary antibodies for 1 hour at room temperature. Protein amounts were normalized to rabbit polyclonal anti-human β-actin antibody (1:1,000 dilution) (Cell Signaling Technology). Finally, proteins were visualized using SuperSignal West Pico PLUS chemiluminescent substrate kit (Thermo Fisher Scientific, #34577) and saved as image files using ChemiDoc XRS^+ (Bio-Rad). The signal intensity of protein was quantified using Image Lab software (Bio-Rad). Original images of representative blots were provided in the Source data file.
Immunofluorescence. For tissues, frozen-sections of mouse skin samples were stained with primary antibodies with appropriate dilution at 4° C. overnight, followed by incubation with goat anti-rabbit IgG labeled with Alexa Flour® 488 (Life Technologies) and 594 (Life Technologies) for 1 hour at room temperature. For cells, keratinocytes (3×10^5 cells) plated on cover-slip were fixed with 4% Paraformaldehyde (PFA) for 10 min, permeabilized in PBS including 0.5% Triton X-100 for 15 min at room temperature. After washing with PBS 3 times, cells were stained with primary antibodies overnight at 4° C., followed by incubation with goat anti-rabbit or mouse IgG labeled with Alexa Flour® 488 for 1 hour at room temperature. Cell nuclei were visualized by mounting medium including DAPI (Vector Laboratories, Burlingame, CA, H-1200). Fluorescence images were observed by fluorescence microscopy (Leica microsystems), taken pictures with ×100 (low magnification) and ×200 (high magnification), and saved as image files.

[3] = tested on: wound tissues of Tlr3−/− mice; assay: Microarray gene ontology analysis of wound tissue; type: in vivo, mouse; details: Tlr3−/− mice treated with RA
From the text: Microarray analysis. RNA isolated from keratinocytes with or without Poly (I:C) (GSE92646) and mouse wound tissues from wild type (C57BL/6NJ) and Tlr3^−/− with BMS493 and RA were submitted to the JHMI Deep Sequencing & Microarray core for Affymetrix® Human Exon 1.0ST and mouse microarray chip according to manufacturer's protocols. Raw gene expression signals in the form of Affymetrix CEL files were extracted and normalized with Partek® Genomics Suite™ software using the Robust Multichip Analysis (RMA) algorithm. Genes were ranked according to fold change of the intervention, and referred to as top or bottom induced if they are at the highest fold change (top) or lowest fold change (bottom). The significance of gene expression was measured by student's t-test analysis. These datasets generated during the current study are available in the NCBI GEO repository as listed above.

Aldh1a2, Aldh1a3 = assay: qRT-PCR of Aldh1a2 and Aldh1a3 in mouse wounds; type: in vivo
Procedure: as §1
RNA isolation and quantitative real-time PCR (qRT-PCR). For cells, total RNA was isolated from cultured keratinocytes using RNeasy Mini Kit (Qiagen, Valencia, CA, #74106) and treated with DNase I (Qiagen, #79254) to eliminate genomic DNA. For tissue, total RNA was isolated by following the manual of Direct-zol™ RNA MiniPrep Plus kit (Zymo Research, R2073). The purity and concentration of RNAs were analyzed using a NanoDrop2000c (Thermo Fisher Scientific, ND-2000c). Following reverse transcriptase reactions using high-capacity RNA to cDNA kit (Life Technologies), qRT-PCR was performed to measure target genes using TaqMan probes and Fast reaction master mix reagents (Life Technologies). Relative expression of mRNAs was analyzed by the cycle of threshold (Ct) value of target genes and quantified by normalizing to ribosomal protein large P0 (RPLP0) for human keratinocytes and to β-Actin for mouse keratinocytes or tissues as housekeeping genes using the ΔΔCt method^48.

cells = assay: Entry of dsRNA (PIC) into cells, stain (Example 2); type: cell-based; details: after pre-treatment with RA

| Compound | hair follicle regeneration (WIHN) ([1]; Tlr3−/− mice, topical 0.1 μg per mouse on WD1) | WIHN ([1]; WT mice, supraphysiologic doses of RA) | ALDH1A3 protein [2] | gene ontology categories in microarray analysis [3] | hair follicle regeneration (WIHN) ([1]; MDA5−/− mice, similar to WT) | new hair follicle formation (WIHN) ([1]; WT mice, single injection 5 μg per mouse on WD3) | ALDH1A3, KRT15 and KRT19 protein expression ([2]; human keratinocytes following Poly (I:C) stimulation) | Aldh1a3 and Aldh1a2 induction in early wounds (Aldh1a2, Aldh1a3; Tlr3−/− mice) | Aldh1a2 transcription during wound healing (Aldh1a2, Aldh1a3; WT mice) | Aldh1a3 transcription during wound healing (Aldh1a2, Aldh1a3; WT mice) | accumulation of PIC in cells (cells) |
| --- | --- | --- | --- | --- | --- | --- | --- | --- | --- | --- | --- |
| CC1=C(/C=C/C(C)=C/C=C/C(C)=C/C(=O)O)C(C)(C)CCC1 [RA, all-trans-retinoic acid] | modestly increased | do not modify | robustly increased | substantial enrichment of gene ontology categories pertaining to development and morphogenesis |  |  |  |  |  |  |  |
| Polyinosinic-polycytidylic acid [Poly (I:C)] |  |  | robustly increased |  | induces hair follicle regeneration | stimulates new hair follicle formation | upregulated | neither is induced | did not show a similar pattern | induced | much more effectively |
